According to PMC5500991, “Substituted arylsulphonamides as inhibitors of perforin-mediated lysis” (European Journal of Medicinal Chemistry, 2017):
Read-outs that look alike come from different tables or passages of the source.

Tests used:
[1] = Toxicity to KHYG1 NK cells (Trypan blue exclusion); format: cell-based, human; details: human, viability of KHYG1 NK cells after 24 h, n = 3
Description: (§1) The toxicity assay was carried out in exactly the same manner as the killing assay above, but instead of adding the labelled K562 target cells, 100 μL of RPMI 0.1% BSA was added. Cells were incubated for 4 h at 37 °C and then washed ×3 in RPMI + 0.1% BSA. […] Trypan blue was added to each well. Viable (clear) cells and total (clear + blue) cells were counted, and the percentage of viable cells was calculated compared to DMSO treated cell control (% viability).

[2] = set-up: method as in PMID 28110869; details: parent remaining after 30 min, rat microsomes; cited from earlier work
[3] = molecular target: T1, perforin delivered by KHYG1 NK cells (Homo sapiens, UniProt P14222); test: KHYG1 inhibitory assay: lysis of 51Cr-labelled K562 target cells by KHYG1 NK cells; format: cell-based; details: 51Cr-labelled K562 target cells co-incubated with KHYG1 human NK cells, vs untreated control; for inhibition at 10 µM: n = 4; for KHYG1 Inhibition (% at 10 μM): n = 4, 10 µM
T1 construct: The use of whole NK cells to deliver perforin provides a more realistic model of conditions in vivo; endogenous in cells; host or cells: KHYG1 human NK cells (effector); K562 leukemia target cells
T1 sequence (P14222 22-555): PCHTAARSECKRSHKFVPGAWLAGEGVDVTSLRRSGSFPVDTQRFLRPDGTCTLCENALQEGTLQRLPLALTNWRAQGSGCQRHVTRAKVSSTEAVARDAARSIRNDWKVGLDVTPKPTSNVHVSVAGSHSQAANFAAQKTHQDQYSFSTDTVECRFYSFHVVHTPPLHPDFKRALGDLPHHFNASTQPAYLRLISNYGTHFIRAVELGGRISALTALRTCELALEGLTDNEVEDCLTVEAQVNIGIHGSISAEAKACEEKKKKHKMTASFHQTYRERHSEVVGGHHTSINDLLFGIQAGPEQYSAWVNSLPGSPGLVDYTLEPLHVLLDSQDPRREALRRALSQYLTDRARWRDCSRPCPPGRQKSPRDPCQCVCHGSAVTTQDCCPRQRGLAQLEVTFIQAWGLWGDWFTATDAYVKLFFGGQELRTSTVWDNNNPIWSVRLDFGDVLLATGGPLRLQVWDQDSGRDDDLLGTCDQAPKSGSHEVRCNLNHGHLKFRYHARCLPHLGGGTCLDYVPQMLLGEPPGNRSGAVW
Description: The inhibitory function is then determined by identifying the number of untreated or inhibitor treated effector cells required to kill the same number of targets.

[4] = set-up: method as in PMID 28110869; details: sodium salt in water at room temperature; cited from earlier work
[5] = set-up: method as in PMID 28110869; details: sodium salt, 24 h at 20 °C in water; cited from earlier work
[6] = In vivo plasma pharmacokinetics in mice; details: mouse plasma, 10 mg/kg i.p. in 20% hydroxypropyl-β-cyclodextrin
Description: The in vivo PK parameters were measured for seven compounds selected on the basis of the in vitro assessment described above. Plasma pharmacokinetics were determined in male CD-1 mice for compounds 3, 10, 11, 26, 50, 58 and 59 (Table 6). Blood samples were collected at 5–8 time-points after dosing the compounds at 10 mg/kg in a solution of 20% hydroxypropyl-β-cyclodextrin by intraperitoneal (IP) injection. For analysis of the samples, chromatographic conditions were optimised by HPLC for each compound of interest and an internal standard. A liquid chromatography with tandem mass spectrometry (LC-MS/MS) method was then developed and validated for quantitation of each analyte.
PK studies were carried out in female C57BL/6J (female) mice using IP administration of test compound, dosing at 10 mg/kg in a solution of 20% hydroxypropyl-β-cyclodextrin. Mice (n=3 at each time point) were culled with excess inhalation of CO2 and blood collected by cardiac puncture at 5-8 time points after dosing in ice cold EDTA tubes. Plasma was separated by centrifuging at 6000 rpm for 5 min and stored at -80°C until analysis by LC-MS/MS. Frozen plasma was thawed on wet ice on the day of analysis. Ten μL of sample was transferred to a clean microcentrifuge tube and mixed with ice cold acetonitrile (40 μL containing internal standard) to precipitate the plasma proteins. The tubes were centrifuged at 13000 rpm for 5 min to obtain a clear supernatant which was mixed with 0.01% formic acid-water (1:2). Ten to twenty µL was injected into the LC-MS/MS to measure the analyte concentration in the sample. The samples were quantitated against a calibration curve of known analyte concentrations run in test species blank plasma (sourced from Innovative Research, USA). The concentration vs time data was then fitted into a pharmacokinetic software program (Phoenix WinNonlin v6.2) to calculate the PK parameters including T½, Cmax and AUC0-∞.

[7] = Microsome stability, human; format: in vitro ADME; details: parent (as sodium salt) remaining after 30 min, human microsomes
Description: (§2) Microsome stability was carried out at Cyprotex using pooled human liver microsomes (male and female), pooled rat liver microsomes (male, Sprague Dawley rats), pooled mouse liver microsomes (male CD-1 mice) which were either prepared or purchased from a reputable commercial supplier. […] The final incubation volume was 25 μL. A control incubation was included for each compound tested where 0.1 M phosphate buffer pH 7.4 was added instead of NADPH (minus NADPH). Two control compounds were included with each species. All incubations were performed singularly for each test compound. Each compound was incubated for 0, 5, 15, 30 and 45 min. The control (minus NADPH) was incubated for 45 min only. The reactions were stopped by the addition of 50 μL methanol containing internal standard at the appropriate time points. The incubation plates were centrifuged at 2,500 rpm for 20 min at 4 °C to precipitate the protein. Following precipitation, the sample supernatants were combined in cassettes of up to 4 compounds and analysed using Cyprotex generic LC-MS/MS conditions. From a plot of ln peak area ratio (compound peak area/internal standard peak area) against time, the percentage compound remaining at 30 min was calculated. Results that were > 100% of matched control were defined as 100%.

Microsome stability, rat = format: in vitro ADME; details: parent (as sodium salt) remaining after 30 min, rat microsomes
Description: as §2

[8] = Solubility of the sodium salt in water; format: physicochemical; details: sodium salt in water at room temperature
Description: The compound was dissolved in water until it was no longer soluble in order to achieve a supersaturated concentration. The suspensions were sonicated for 15 min. prior to centrifugation at 13,000 revolutions per minute (rpm) for 6 minutes. Supernatants were removed and then recentrifuged prior to dilution of at least two fold in water to avoid precipitation during HPLC analysis.

[9] = Stability in solution (water, 20 °C, 24 h); format: physicochemical; details: sodium salt, 24 h at 20 °C in water
Description: Test compounds were incubated (10 μM; < 2.5% DMSO in final concentration) in Milli Q water (n=3 tubes) at 20 °C for 24 h. (Eppendorf Thermomixer Comfort). Aliquots were collected (25 μL) just before the incubation (time “0 min”) and at 24 h. These samples were stored in a -80 °C freezer until the analysis by liquid chromatography with tandem mass spectrometry spectrometry (LC-MS/MS) – see next section for method development. Samples were thawed on wet ice on the day of assay. Thawed aliquots were mixed by vortex mixer, 10 μL of the sample transferred to a clean tube, 40 μL of ice cold acetonitrile added (containing internal standard compound), then centrifuged at 13,000 rpm for 5 min, 40 μL of clear supernatant transferred to an HPLC insert and mixed with 80 μL of 0.01% formic acid in water. Ten to 20 μL was injected onto the LC-MS/MS system. Results are based on the peak area ratio of drug to internal standard at time “0 h” (i.e. before the incubation and at the end i.e. “24 h”).

[10] = Microsome stability, mouse; format: in vitro ADME; details: parent (as sodium salt) remaining after 30 min, mouse microsomes
Description: as §2

KHYG1 NK cells = test: Toxicity to KHYG1 NK cells (Trypan blue exclusion); format: cell-based, human; details: viability of KHYG1 NK cells after 24 h, n = 3
Description: as §1

| SMILES | viability at 24 h, 10 µM [1] [%] | Microsome Stability (%) Rat [2] [%] | inhibition at 10 µM [3] [%] | Solubility [4] [µg/mL] | Stability in Solution (% parent remaining) [5] [%] | AUC0-∞ [6] [µM·h] | Cmax [6] [µM] | T1/2 [6] [h] | Microsome Stability (%) Human [7] [%] | KHYG1 Inhibition (% at 10 μM) [3] [%] | Microsome Stability (%) Rat (Microsome stability, rat) [%] | Solubility [8] | solubility at 15 min [8] [µg/mL] | Stability in Solution (% parent remaining) [9] [%] | Microsome Stability (%) Mouse [10] [%] | melting point [°C] | KHYG1 Viability (% at 10 μM) (KHYG1 NK cells) |
| --- | --- | --- | --- | --- | --- | --- | --- | --- | --- | --- | --- | --- | --- | --- | --- | --- | --- |
| CN1Cc2cc(-c3ccc(-c4cncc(NS(=O)(=O)c5ccc(F)cc5F)c4)s3)ccc2C1=O [Compound 3] | 100 | 99 | 67.5 ± 17.5 | 1080 | 82 | 220 | 10 | 12.0 |  |  |  |  |  |  |  |  |  |
| CN1Cc2cc(-c3ccc(-c4cnc(F)c(NS(=O)(=O)c5ccc(F)cc5F)c4)s3)ccc2C1=O [Compound 10, 2,4-Difluoro-N-(2-fluoro-5-(5-(2-methyl-1-oxoisoindolin-5-yl)thiophen-2-yl)pyridin-3-yl)benzenesulphonamide] | 92 ± 3 |  | 93 |  |  | 2885 | 236 | 6.6 | 94 | 92.5 ± 1.8 | 100 | negative impact on solubility | 428 | 100 | 96 |  |  |
| CN1Cc2cc(-c3ccc(-c4cnc(Cl)c(NS(=O)(=O)c5ccc(F)cc5F)c4)s3)ccc2C1=O [Compound 11, 2,4-Difluoro-N-(2-chloro-5-(5-(2-methyl-1-oxoisoindolin-5-yl)thiophen-2-yl)pyridin-3-yl)benzenesulphonamide] | 94 ± 5.3 |  | 95 ± 2.5 |  |  | 2364 | 149 | 9.5 | 95 |  | 99 |  | 4030 | 100 | 97 |  |  |
| CN1Cc2cc(-c3ccc(-c4cncc(NS(=O)(=O)c5ccc(C(=O)O)cc5)c4)s3)ccc2C1=O [Compound 55, 4-(N-(5-(5-(2-Methyl-1-oxoisoindolin-5-yl)thiophen-2-yl)pyridin-3-yl)sulfamoyl)benzoic acid] |  |  |  |  |  |  |  |  |  |  |  |  |  |  |  | > 310 | toxic to the NK cells |
| CN1Cc2cc(-c3ccc(-c4cncc(NS(=O)(=O)c5ccccc5[N+](=O)[O-])c4)s3)ccc2C1=O [Compound 58, N-(5-(5-(2-Methyl-1-oxoisoindolin-5-yl)thiophen-2-yl)pyridin-3-yl)-2-nitrobenzenesulfonamide] | 98.7 ± 1.5 |  | 96 |  |  | 415 | 105 | 2.5 | 73 | 95.6 ± 1.9 | 89 |  | 671 | 100 | 100 |  |  |
